Results taken from patent US9522888B2, “Substituted bicyclic compounds” (BRISTOL-MYERS SQUIBB COMPANY, priority 2014, dated 2016).

The molecules below were run against S1P3 (membranes prepared from EDG3-Gal5-bla HEK293T cells) (Homo sapiens (Human), UniProt Q99500) (assay: Receptor [35S] GTPγS binding assay (S1P3 GTPγS)). Details: GTPγS S1P1 versus GTPγS S1P3, result in words.
Format: biochemical
Method: (§1) Receptor [^35S] GTPγS Binding Assays: (S1P1 GTPγS/S1P3 GTPγS)
(§2) Compounds were loaded in a 384 Falcon v-bottom plate (0.5 μl/well in a 11 point, 3-fold dilution). Membranes prepared from S1P1/CHO cells or EDG3-Gal5-bla HEK293T cells (EDG3 equivalent S1P3) were added to the compound plate (40 μl/well, final protein 3 μg/well) with MULTIDROP®. [^35S] GTP (1250 Ci/mmol, Perkin Elmer) was diluted in assay buffer: 20 mM HEPES, pH7.5, 10 mM MgCl2, 150 mM NaCl, 1 mM EGTA (ethylene glycol tetraacetic acid), 1 mM DTT (Dithiothreitol), 10 μM GDP, 0.1% fatty acid free BSA, and 10 μg/ml Saponin to 0.4 nM. 40 μl of the [^35S] GTP solution was added to the compound plate with a final concentration of 0.2 nM. The reaction was kept at room temperature for 45 min. At the end of incubation, all the mixtures in the compound plate were transferred to Millipore 384-well FB filter plates via the VELOCITY11® Vprep liquid handler. The filter plate was washed with water 4 times by using the manifold Embla plate washer and dried at 60° C. for 45 min. MicroScint 20 scintillation fluid (30 μl) was added to each well for counting on the Packard TOPCOUNT®.
A smaller value for GTPγS S1P1 EC50 value indicated greater activity for the compound in the GTPγS S1P1 binding assay. A larger value for the GTPγS S1P3 EC50 value indicated less activity in the GTPγS S1P3 binding assay. […] Thus the compounds of the present invention may be used in treating, preventing, or curing various S1P1 receptor-related conditions while reducing or minimizing the side effects due to S1P3 activity. The selectivity of the compounds of the present invention indicate their potential use in treating, preventing, or curing autoimmune and inflammatory diseases such as multiple sclerosis, rheumatoid arthritis, inflammatory bowel disease, lupus, psoriasis, or vascular diseases, while reducing or minimizing possible side effects due to S1P3 activity. Other potential uses of the compounds of the present invention include minimizing or reducing rejection of transplanted organs, while reducing or minimizing side effects due to S1P3 activity.

Chain of S1P3 (membranes prepared from EDG3-Gal5-bla HEK293T cells) (Q99500 whole entry): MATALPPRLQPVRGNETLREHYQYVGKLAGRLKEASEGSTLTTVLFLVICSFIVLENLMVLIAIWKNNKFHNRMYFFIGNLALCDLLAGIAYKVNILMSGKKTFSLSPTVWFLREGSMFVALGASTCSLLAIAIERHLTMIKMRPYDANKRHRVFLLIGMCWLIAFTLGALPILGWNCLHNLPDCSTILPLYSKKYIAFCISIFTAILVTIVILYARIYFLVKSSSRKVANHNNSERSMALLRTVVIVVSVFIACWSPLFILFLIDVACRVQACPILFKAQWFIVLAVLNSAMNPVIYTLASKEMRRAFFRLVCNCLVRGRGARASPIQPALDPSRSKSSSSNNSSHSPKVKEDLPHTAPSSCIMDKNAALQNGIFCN

Row | SMILES | selectivity over S1P3
1 | COCCCCCC1CCc2cc([C@H]3CC[C@](N)(COP(=O)(O)O)C3)ccc2C1 (single isomer, unassigned) [Example 689] | selective over S1P3

Same assay, conditions: [35S]GTPγS, EDG3-Gal5-bla HEK293T cell membranes; read-out: GTPγS S1P3 EC50

Row | SMILES | EC50 [µM]
2 | COCCCCCC1CCc2cc([C@H]3CC[C@](N)(COP(=O)(O)O)C3)ccc2C1 (single isomer, unassigned) [Example 689] | > 2

Same assay, conditions: membranes prepared from EDG3-Gal5-bla HEK293T cells; read-out: GTPγS S1P3 EC50

Row | SMILES | EC50 [µM]
3 | COCCCCCC1CCc2cc([C@H]3CC[C@](N)(COP(=O)(O)O)C3)ccc2C1 (single isomer, unassigned) [Example 689] | > 2

Same assay, conditions: phosphate examples; read-out: S1P3 GTPγS

Row | SMILES | EC50 [µM]
4 | COc1cccc(COC[C@H]2CCc3cc([C@H]4CC[C@](N)(COP(=O)(O)O)C4)ccc3C2)c1 [compound 481] | > 0.625
5 | COCCCCC[C@H]1CCc2cc([C@@H]3CC[C@@](N)(COP(=O)(O)O)C3)ccc2C1 [compound 598] | > 0.625
6 | N[C@]1(COP(=O)(O)O)CC[C@H](c2ccc3c(c2)CC[C@H](c2ccncc2)C3)C1 [compound 574] | > 0.625
7 | N[C@]1(COP(=O)(O)O)CC[C@H](c2ccc3c(c2)CC[C@H](COCc2ccccc2)C3)C1 [compound 445] | > 0.625
8 | C/C(=N\OCc1ccccc1)[C@@H]1CCc2cc([C@H]3CC[C@](N)(COP(=O)(O)O)C3)ccc2C1 [compound 664] | > 0.625
9 | N[C@]1(COP(=O)(O)O)CC[C@@H](c2ccc3c(c2)CC[C@H](CSc2ccccc2)C3)C1 [compound 507] | > 0.625
10 | CN(C)C(=O)Cc1ccc(C[C@@H]2CCc3cc([C@H]4CC[C@](N)(COP(=O)(O)O)C4)ccc3C2)cc1 [compound 562] | > 0.625
11 | N[C@@]1(COP(=O)(O)O)CC[C@@H](c2ccc3c(c2)CC[C@@H](OCCOc2ccccc2)C3)C1 [compound 583] | > 0.1
12 | N[C@]1(COP(=O)(O)O)CC[C@H](c2ccc3c(c2)CC[C@@H](COCc2ccsc2)C3)C1 [compound 473] | > 0.625
13 | CC(C)COCC[C@@H]1CCc2cc([C@H]3CC[C@](N)(COP(=O)(O)O)C3)ccc2C1 [compound 542] | > 0.625
14 | CCCCCCC1CCc2cc([C@H]3CC[C@](N)(COP(=O)(O)O)C3)ccc2O1 (some centres unmarked) [compound 419] | > 0.625
15 | CCCC/C=C/C1=Cc2ccc([C@H]3CC[C@](N)(COP(=O)(O)O)C3)cc2CC1 [compound 647] | > 0.625
16 | CC(C)CN(C)C(=O)c1cccc(OC[C@@H]2CCc3cc([C@H]4CC[C@](N)(COP(=O)(O)O)C4)ccc3C2)c1 [compound 500] | > 0.625
17 | CC(C)COCC[C@H]1CCc2cc([C@H]3CC[C@](N)(COP(=O)(O)O)C3)ccc2C1 [compound 543] | > 0.625

What follows are molecules tested against hS1P1/CHO cells (Homo sapiens (Human), UniProt P21453) (assay: hS1P1 ERK phosphorylation (S1P1 pERK)). Details: phosphate examples.
Format: cell-based
Method: hS1P1 ERK Phosphorylation (S1P1 pERK)
hS1P1/CHO cells were plated into BD Amine 384-well plates the day before the assay. On the day of the assay, growth medium was removed and replaced with serum-free medium (Ham's F-12 Invitrogen) and incubated for 2 hours. Test compounds pre-diluted in HBSS (Gibco)/20 mM HEPES (Gibco) were transferred to the cell plates and incubated for 7 minutes at 37° C. Cells were lysed in lysis buffer (Perkin Elmer) and phospho-ERK was measured using the SureFire pERK kit (Perkin Elmer) as described by the manufacturer. Data was plotted as percentage activation of the test compound relative to the efficacy of 10 μM S1P.

Chain of hS1P1/CHO cells (P21453 whole entry): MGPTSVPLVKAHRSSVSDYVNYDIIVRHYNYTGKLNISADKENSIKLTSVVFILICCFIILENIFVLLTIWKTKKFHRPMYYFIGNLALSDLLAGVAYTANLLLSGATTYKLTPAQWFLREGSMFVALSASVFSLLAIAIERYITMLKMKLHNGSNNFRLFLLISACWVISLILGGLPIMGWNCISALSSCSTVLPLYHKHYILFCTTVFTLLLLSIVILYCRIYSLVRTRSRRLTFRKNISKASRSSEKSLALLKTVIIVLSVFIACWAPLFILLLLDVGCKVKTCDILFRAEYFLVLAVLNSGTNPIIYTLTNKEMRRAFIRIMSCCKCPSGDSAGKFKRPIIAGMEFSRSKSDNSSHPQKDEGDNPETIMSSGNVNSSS

Row | SMILES | EC50 [µM]
18 | COc1cccc(COC[C@H]2CCc3cc([C@H]4CC[C@](N)(COP(=O)(O)O)C4)ccc3C2)c1 [compound 481] | < 0.01
19 | COCCCCC[C@H]1CCc2cc([C@@H]3CC[C@@](N)(COP(=O)(O)O)C3)ccc2C1 [compound 598] | < 0.01
20 | N[C@]1(COP(=O)(O)O)CC[C@H](c2ccc3c(c2)CC[C@H](c2ccncc2)C3)C1 [compound 574] | 0.01 to 0.1
21 | N[C@]1(COP(=O)(O)O)CC[C@H](c2ccc3c(c2)CC[C@H](COCc2ccccc2)C3)C1 [compound 445] | 0.01 to 0.1
22 | C/C(=N\OCc1ccccc1)[C@@H]1CCc2cc([C@H]3CC[C@](N)(COP(=O)(O)O)C3)ccc2C1 [compound 664] | < 0.01
23 | N[C@]1(COP(=O)(O)O)CC[C@@H](c2ccc3c(c2)CC[C@H](CSc2ccccc2)C3)C1 [compound 507] | 0.01 to 0.1
24 | CN(C)C(=O)Cc1ccc(C[C@@H]2CCc3cc([C@H]4CC[C@](N)(COP(=O)(O)O)C4)ccc3C2)cc1 [compound 562] | 0.01 to 0.1
25 | N[C@@]1(COP(=O)(O)O)CC[C@@H](c2ccc3c(c2)CC[C@@H](OCCOc2ccccc2)C3)C1 [compound 583] | < 0.01
26 | N[C@]1(COP(=O)(O)O)CC[C@H](c2ccc3c(c2)CC[C@@H](COCc2ccsc2)C3)C1 [compound 473] | 0.01 to 0.1
27 | CC(C)COCC[C@@H]1CCc2cc([C@H]3CC[C@](N)(COP(=O)(O)O)C3)ccc2C1 [compound 542] | < 0.01
28 | CCCCCCC1CCc2cc([C@H]3CC[C@](N)(COP(=O)(O)O)C3)ccc2O1 (some centres unmarked) [compound 419] | 0.01 to 0.1
29 | CCCC/C=C/C1=Cc2ccc([C@H]3CC[C@](N)(COP(=O)(O)O)C3)cc2CC1 [compound 647] | 0.01 to 0.1
30 | CC(C)CN(C)C(=O)c1cccc(OC[C@@H]2CCc3cc([C@H]4CC[C@](N)(COP(=O)(O)O)C4)ccc3C2)c1 [compound 500] | < 0.01
31 | CC(C)COCC[C@H]1CCc2cc([C@H]3CC[C@](N)(COP(=O)(O)O)C3)ccc2C1 [compound 543] | < 0.01

Each molecule was assayed against human S1P1 (Homo sapiens (Human), UniProt P21453) (assay: S1P1 binding assay (33P-S1P radioligand competition, CHO cell membranes)). Details: 33P-S1P competition, membranes of CHO cells expressing human S1P1; read-out: S1P1 Binding IC50.
Method: Membranes were prepared from CHO cells expressing human S1P1. Cells pellets (1×10^9 cells/pellet) were suspended in buffer containing 20 mM HEPES (4-(2-hydroxyethyl)-1-piperazineethanesulfonic acid), pH 7.5, 50 mM NaCl, 2 mM EDTA (Ethylenediaminetetraacetic acid) and Protease Inhibitor cocktail (Roche), and disrupted on ice using the Polytron homogenizer. The homogenate was centrifuged at 20,000 rpm (48,000 g) and the supernatant was discarded. The membrane pellets were resuspended in buffer containing 50 mM HEPES, pH 7.5, 100 mM NaCl, 1 mM MgCl2, 2 mM EDTA and stored in aliquots at −80° C. after protein concentration determination.

Chain of human S1P1 (P21453 whole entry): as above

Row | SMILES | IC50 [µM]
32 | COCCCCCC1CCc2cc([C@H]3CC[C@](N)(COP(=O)(O)O)C3)ccc2C1 (single isomer, unassigned) [Example 689] | 0.0017

Same assay, conditions: phosphate examples; read-out: S1P1 Binding

Row | SMILES | IC50 [µM]
33 | COc1cccc(COC[C@H]2CCc3cc([C@H]4CC[C@](N)(COP(=O)(O)O)C4)ccc3C2)c1 [compound 481] | < 0.01
34 | COCCCCC[C@H]1CCc2cc([C@@H]3CC[C@@](N)(COP(=O)(O)O)C3)ccc2C1 [compound 598] | 0.01 to 0.1
35 | N[C@]1(COP(=O)(O)O)CC[C@H](c2ccc3c(c2)CC[C@H](c2ccncc2)C3)C1 [compound 574] | 0.1 to 1
36 | N[C@]1(COP(=O)(O)O)CC[C@H](c2ccc3c(c2)CC[C@H](COCc2ccccc2)C3)C1 [compound 445] | 0.01 to 0.1
37 | C/C(=N\OCc1ccccc1)[C@@H]1CCc2cc([C@H]3CC[C@](N)(COP(=O)(O)O)C3)ccc2C1 [compound 664] | < 0.01
38 | N[C@]1(COP(=O)(O)O)CC[C@@H](c2ccc3c(c2)CC[C@H](CSc2ccccc2)C3)C1 [compound 507] | 0.1 to 1
39 | CN(C)C(=O)Cc1ccc(C[C@@H]2CCc3cc([C@H]4CC[C@](N)(COP(=O)(O)O)C4)ccc3C2)cc1 [compound 562] | 0.1 to 1
40 | N[C@]1(COP(=O)(O)O)CC[C@H](c2ccc3c(c2)CC[C@@H](COCc2ccsc2)C3)C1 [compound 473] | < 0.01

What follows are molecules tested against S1P1 (membranes prepared from S1P1/CHO cells) (Homo sapiens (Human), UniProt P21453) (assay: Receptor [35S] GTPγS binding assay (S1P1 GTPγS)). Details: GTPγS S1P1 binding assay, result in words.
Format: biochemical
Method: as §1
as §2, with “TOPCOUNT®. […]” for “TOPCOUNT®.”

Chain of S1P1 (membranes prepared from S1P1/CHO cells) (P21453 whole entry): as above

Row | SMILES | activity as an agonist of S1P1
41 | COCCCCCC1CCc2cc([C@H]3CC[C@](N)(COP(=O)(O)O)C3)ccc2C1 (single isomer, unassigned) [Example 689] | possessed activity as an agonist of S1P1

Same assay, conditions: [35S]GTPγS, S1P1/CHO cell membranes; read-out: GTPγS S1P1 EC50

Row | SMILES | EC50 [µM]
42 | COCCCCCC1CCc2cc([C@H]3CC[C@](N)(COP(=O)(O)O)C3)ccc2C1 (single isomer, unassigned) [Example 689] | 0.0057

Same assay, conditions: phosphate examples; read-out: S1P1 GTPγS

Row | SMILES | EC50 [µM]
43 | COc1cccc(COC[C@H]2CCc3cc([C@H]4CC[C@](N)(COP(=O)(O)O)C4)ccc3C2)c1 [compound 481] | < 0.01
44 | COCCCCC[C@H]1CCc2cc([C@@H]3CC[C@@](N)(COP(=O)(O)O)C3)ccc2C1 [compound 598] | 0.01 to 0.1
45 | N[C@]1(COP(=O)(O)O)CC[C@H](c2ccc3c(c2)CC[C@H](COCc2ccccc2)C3)C1 [compound 445] | 0.01 to 0.1
46 | C/C(=N\OCc1ccccc1)[C@@H]1CCc2cc([C@H]3CC[C@](N)(COP(=O)(O)O)C3)ccc2C1 [compound 664] | < 0.01
47 | N[C@]1(COP(=O)(O)O)CC[C@@H](c2ccc3c(c2)CC[C@H](CSc2ccccc2)C3)C1 [compound 507] | 0.1 to 1
48 | CN(C)C(=O)Cc1ccc(C[C@@H]2CCc3cc([C@H]4CC[C@](N)(COP(=O)(O)O)C4)ccc3C2)cc1 [compound 562] | 0.1 to 1
49 | N[C@@]1(COP(=O)(O)O)CC[C@@H](c2ccc3c(c2)CC[C@@H](OCCOc2ccccc2)C3)C1 [compound 583] | < 0.01
50 | CC(C)COCC[C@@H]1CCc2cc([C@H]3CC[C@](N)(COP(=O)(O)O)C3)ccc2C1 [compound 542] | < 0.01
51 | CCCC/C=C/C1=Cc2ccc([C@H]3CC[C@](N)(COP(=O)(O)O)C3)cc2CC1 [compound 647] | 0.1 to 1
52 | CC(C)CN(C)C(=O)c1cccc(OC[C@@H]2CCc3cc([C@H]4CC[C@](N)(COP(=O)(O)O)C4)ccc3C2)c1 [compound 500] | < 0.01
53 | CC(C)COCC[C@H]1CCc2cc([C@H]3CC[C@](N)(COP(=O)(O)O)C3)ccc2C1 [compound 543] | < 0.01
